{"source": "patent US20120172344A1", "about": "“INSULIN-PRODUCING CELL INDUCER, GLUCOSE INTAKE ENHANCER, AND THERAPEUTIC AGENT FOR DIABETES OR DIABETES COMPLICATIONS” (KYUSHU UNIVERSITY, NATIONAL UNIVERSITY CORPORATION, priority 2009, published 2012)", "key": {"[1]": {"test_system": "Tg23 mice (ICERIγ transgenic diabetes model mice)", "assay": "Experimental Example 1: effect of estradiol administration on blood glucose and insulin-producing cells in diabetes model mice", "type": "in vivo, mouse", "experimental": "Blood glucose levels were measured by an enzyme-electrode method with ONE TOUCH UltraVue (Johnson & Johnson K.K.) on whole blood taken from tail veins of subject animals.\nPancreases were fixed in 10% formalin, embedded in paraffin, and sliced into sections having a thickness of 2 μm. The sections were immunostained with overnight incubation at 4° C. in dilution solutions containing various primary antibodies described below.\n(§1) Primary antibodies: Anti-insulin antibody (dilution rate 1:500; DAKO), anti-glucagon antibody (dilution rate 1:500; Linco Research Inc.), anti-DBA antibody (dilution rate 1:300; Vector Laboratories), anti-Pdx-1 antibody (dilution rate 1:1000; kindly provided by Chris V. E. Wright, Vanderbilt University), anti-collagen type IV antibody (dilution rate 1:250; PROGEN Biotechnik), and anti-Glut 4 antibody (dilution rate 1:1000; Chemicon).\n(§2) The primary antibodies were detected by immunofluorescence labeling using secondary antibodies conjugated with Alexa 488 or Alexa 568 (1:200; Molecular Probes); third antibody conjugated with biotin-labeled secondary antibodies and streptavidin Alexa 488 or Alexa 568 (1:800; Vector Laboratories); or by an immunoperoxidase staining method using biotin-labeled secondary antibodies. Staining was visualized with diaminobenzidine. The sections were counterstained with hematoxylin. Images were captured on a BZ9000 microscope (Keyence), or in the confocal mode on an LSM 510 META confocal microscope (Carl Zeiss). Immunofluorescence intensity was measured in random fields (n=30/section) using LSM Zeiss software, and the result was expressed as average pixel intensity.\nICERIγ transgenic mice (male) were generated from a pure line C57BL/6J (Japan SLC, Inc.) in accordance with the method described in Example 1 of Patent Literature 1 (WO2004/072282). […]\nTg23 mice (11 weeks of age) were divided into two groups: an estradiol administration group (n=24), and a control group (n=57). […] Then, body weight and blood glucose levels of the Tg mice and wild-type mice (WT) (n=81) were monitored every week, and the mice were dissected after 43 weeks. […]"}, "[2]": {"test_system": "AKT and Glut4", "assay": "Experimental Example 3: intramuscular expression of AKT and Glut4 (western blot, immunostaining)", "type": "in vivo, mouse", "from_the_text": "as §1, §2\nMice were sacrificed, and the EDL, tibialis anterior, and gastrocnemius muscles were removed and snap-frozen in liquid nitrogen. […]\nProtein levels were quantified using NIH Image. […]"}}, "data": [{"smiles": "C[C@]12CC[C@@H]3c4ccc(O)cc4CC[C@H]3[C@@H]1CC[C@@H]2O", "note": "[estradiol, 17β-estradiol]", "values": [{"measurement": "blood glucose levels", "setting": "[1]; Tg23 mice 11 weeks of age, testectomy (Tx) + single 17β-estradiol pellet s.c. (0.72 mg/pellet, 90-day release), vs wild-type mice", "result": "lowered to the same levels of normal mice"}, {"measurement": "persistence of lowered blood glucose levels", "setting": "[1]; Tx+E group, Tg23 mice", "result": "maintained until death"}, {"measurement": "insulin-producing cells in pancreatic duct epithelium cells of the pancreas", "setting": "[1]; Tx+E group, anti-insulin immunostaining, 1 week after estradiol administration", "result": "induced"}, {"measurement": "glucose transporter (Glut4) in muscle cells", "setting": "[2]; Tg mice in Tx-E group", "result": "increased"}, {"measurement": "expression of intramuscular AKT and Glut4", "setting": "[2]; Tg mice, Tx + 17β-estradiol pellet s.c.", "result": "upregulates"}]}]}
